What all share (assay): In Vitro Assay Dipeptidyl Peptidase IV. Fibroblast Activation Protein and Prolyl Oligopeptidase
The target of one assay is Dipeptidyl peptidase 4 (Homo sapiens, UniProt P27487). The protocol: (§1) The purpose of this assay is to determine the IC50 of various inhibitors against recombinant human dipeptidyl peptidase IV (DPPIV), fibroblast activation protein (FAP) or prolyl oligopeptidase (PREP). The assays are conducted in the following steps:1 Dissolve the compound in DMSO to a final concentration of […]. […] Serial dilute (1:10) the 1 mM compound stocks prepared previously into the appropriate assay buffer (FAP: 50 mM Tris, 140 mM NaCl, pH 7.5/PREP: 25 mM Tris, 0.25 M NaCl, pH 7.5/DPPIV: 25 mM Tris, pH 8.0) to one row of a 96-well plate. 3. […] 4. Dilute the enzymes into their appropriate assay buffers. The final enzyme concentrations should be 0.1, 1.2, and 0.6 nM for DPPIV, FAP and PREP respectively. Add 180 μL to each well needed in columns 2-10. Column 1 (A,B,C) should be prepared with 200 ul of appropriate assay buffer as control. Column 1 (D,E,F,G,H) should be prepared with 20 ul of appropriate assay buffer and 180 ul enzyme as no inhibitor control. 5. Add 20 μL of the compound of interest from the dilution plate prepared in step 2 to columns 2-10 of the assay plate where appropriate. Each sample should be tested in triplicate. Allow this to incubate for 10 minutes at room temperature, shaking the plate for the first two minutes. 6. Add 10 μL of 20× substrate prepared in step 3 to each well and allow this to incubate for 15 minutes at room temperature, shaking the plate for the first two minutes. 7. Read the fluorescence at λex: 380, λem: 460.
Chain of Dipeptidyl peptidase 4 (P27487 whole entry): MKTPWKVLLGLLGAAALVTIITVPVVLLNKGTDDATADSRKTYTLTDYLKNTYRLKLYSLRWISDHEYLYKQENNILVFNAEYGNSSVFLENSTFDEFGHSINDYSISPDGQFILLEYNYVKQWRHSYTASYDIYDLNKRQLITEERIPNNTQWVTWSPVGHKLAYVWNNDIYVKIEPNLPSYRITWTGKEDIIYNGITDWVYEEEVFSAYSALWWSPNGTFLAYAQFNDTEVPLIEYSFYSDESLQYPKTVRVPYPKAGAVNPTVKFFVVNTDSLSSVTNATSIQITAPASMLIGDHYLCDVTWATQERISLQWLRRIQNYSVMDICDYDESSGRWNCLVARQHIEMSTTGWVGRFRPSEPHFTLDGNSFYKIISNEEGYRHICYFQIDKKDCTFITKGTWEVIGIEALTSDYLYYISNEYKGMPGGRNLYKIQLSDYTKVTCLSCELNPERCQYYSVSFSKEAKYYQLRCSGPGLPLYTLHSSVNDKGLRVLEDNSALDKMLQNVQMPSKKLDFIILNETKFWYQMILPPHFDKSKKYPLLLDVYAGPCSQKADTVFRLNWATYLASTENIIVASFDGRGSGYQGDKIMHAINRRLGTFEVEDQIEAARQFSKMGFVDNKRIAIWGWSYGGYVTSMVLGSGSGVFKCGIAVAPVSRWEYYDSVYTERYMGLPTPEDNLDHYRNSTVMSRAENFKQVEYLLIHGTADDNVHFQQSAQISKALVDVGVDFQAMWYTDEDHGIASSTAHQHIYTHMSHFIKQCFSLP

The next assay has as its target T1, Prolyl endopeptidase (Homo sapiens, UniProt P48147).
T1 sequence (P48147 whole entry): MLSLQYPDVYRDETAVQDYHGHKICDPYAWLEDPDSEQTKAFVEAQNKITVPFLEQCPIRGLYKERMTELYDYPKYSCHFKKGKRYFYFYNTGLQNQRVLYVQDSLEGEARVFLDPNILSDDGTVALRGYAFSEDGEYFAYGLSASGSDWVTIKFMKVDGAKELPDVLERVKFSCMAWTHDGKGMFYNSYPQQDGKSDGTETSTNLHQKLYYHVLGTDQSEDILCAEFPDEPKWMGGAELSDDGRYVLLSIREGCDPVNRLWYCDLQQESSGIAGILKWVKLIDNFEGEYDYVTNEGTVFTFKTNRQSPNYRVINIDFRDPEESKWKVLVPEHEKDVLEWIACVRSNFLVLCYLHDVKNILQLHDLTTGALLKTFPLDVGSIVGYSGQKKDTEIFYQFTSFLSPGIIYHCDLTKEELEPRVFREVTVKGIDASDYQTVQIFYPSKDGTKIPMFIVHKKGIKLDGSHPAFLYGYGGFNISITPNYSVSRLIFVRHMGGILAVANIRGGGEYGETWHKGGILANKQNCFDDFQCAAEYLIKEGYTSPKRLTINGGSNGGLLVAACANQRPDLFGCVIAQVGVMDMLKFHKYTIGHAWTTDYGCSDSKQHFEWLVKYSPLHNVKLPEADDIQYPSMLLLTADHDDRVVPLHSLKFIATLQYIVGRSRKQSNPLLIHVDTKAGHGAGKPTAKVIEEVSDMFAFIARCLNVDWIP
The protocol:
as §1

The target in another assay is T2, Prolyl endopeptidase FAP (Homo sapiens, UniProt Q12884).
T2 sequence (Q12884 whole entry): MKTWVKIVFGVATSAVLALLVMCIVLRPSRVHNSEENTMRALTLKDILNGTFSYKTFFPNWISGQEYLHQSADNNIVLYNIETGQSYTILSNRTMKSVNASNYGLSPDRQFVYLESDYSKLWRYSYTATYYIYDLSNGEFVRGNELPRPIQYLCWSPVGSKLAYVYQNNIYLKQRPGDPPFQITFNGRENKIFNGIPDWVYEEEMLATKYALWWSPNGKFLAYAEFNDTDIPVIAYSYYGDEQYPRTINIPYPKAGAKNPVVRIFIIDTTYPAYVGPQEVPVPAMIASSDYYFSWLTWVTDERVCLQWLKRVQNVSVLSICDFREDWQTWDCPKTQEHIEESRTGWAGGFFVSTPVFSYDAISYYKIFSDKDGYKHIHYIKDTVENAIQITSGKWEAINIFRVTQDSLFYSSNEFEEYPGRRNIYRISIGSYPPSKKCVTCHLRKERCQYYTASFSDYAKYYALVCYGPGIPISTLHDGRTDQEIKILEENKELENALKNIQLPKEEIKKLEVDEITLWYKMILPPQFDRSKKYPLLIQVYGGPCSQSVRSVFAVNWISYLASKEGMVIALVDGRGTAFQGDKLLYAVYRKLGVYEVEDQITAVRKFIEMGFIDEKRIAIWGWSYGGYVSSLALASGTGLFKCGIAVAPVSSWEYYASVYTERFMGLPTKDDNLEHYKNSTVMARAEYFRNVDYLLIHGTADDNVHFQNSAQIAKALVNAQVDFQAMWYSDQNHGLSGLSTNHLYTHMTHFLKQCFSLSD
The protocol: as §1

Among the data in BindingDB's records for patent US11707539 (Tufts College, 2023) are IC50 values, retold here.

Where “and” joins values, the source holds several entries; their conditions need not be identical. Equal entries are not always repeated. Where a SMILES comes first, the peptide text is derived from it. Where only a bound is given, the exact number is not on record here.

Consider `CC(C)[C@H](NC(=O)CNC(=O)CNC(=O)CN1CCN(CC(=O)O)CCN(CC(=O)O)CCN(CC(=O)O)CC1)C(=O)N[C@H](C)C(=O)N1CCC[C@H]1B(O)O` [US11707539, Compound 6522] (HELM PEPTIDE1{[O=C(O)CN1CCN(CC(=O)O)CCN(CC(=O)[*:2])CCN(CC(=O)O)CC1].G.G.V.[dA].[OB(O)[C@@H]1CCCN1[*:1]]}$$$$V2.0), for which the IC50 was more than 100000 nM against Dipeptidyl peptidase 4; 13000 nM against Prolyl endopeptidase; 3.5 nM and 12 nM against Prolyl endopeptidase FAP.

Regarding `N[C@@H](CCCCNC(=O)CCCNC(=O)CN1CCN(CC(=O)O)CCN(CC(=O)O)CCN(CC(=O)O)CC1)C(=O)N1CCC[C@H]1B(O)O` [US11707539, Compound 6551], the IC50 on Prolyl endopeptidase FAP is 2.6 nM and 2 nM.
